For 3 compounds, KM results are on record in publication PMC10154775, “Specificity of Penicillin Acylases in Deprotection of N-Benzyloxycarbonyl Derivatives of Amino Acids” (Acta Naturae, 2023).

T1 sequence (P06875 27-235, looked up): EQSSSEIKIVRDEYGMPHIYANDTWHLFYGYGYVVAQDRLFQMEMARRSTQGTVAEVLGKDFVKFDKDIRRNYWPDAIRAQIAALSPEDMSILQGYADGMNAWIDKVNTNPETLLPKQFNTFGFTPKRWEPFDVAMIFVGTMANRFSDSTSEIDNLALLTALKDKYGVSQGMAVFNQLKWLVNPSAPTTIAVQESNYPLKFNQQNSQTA
T1 sequence (P06875 290-846, looked up): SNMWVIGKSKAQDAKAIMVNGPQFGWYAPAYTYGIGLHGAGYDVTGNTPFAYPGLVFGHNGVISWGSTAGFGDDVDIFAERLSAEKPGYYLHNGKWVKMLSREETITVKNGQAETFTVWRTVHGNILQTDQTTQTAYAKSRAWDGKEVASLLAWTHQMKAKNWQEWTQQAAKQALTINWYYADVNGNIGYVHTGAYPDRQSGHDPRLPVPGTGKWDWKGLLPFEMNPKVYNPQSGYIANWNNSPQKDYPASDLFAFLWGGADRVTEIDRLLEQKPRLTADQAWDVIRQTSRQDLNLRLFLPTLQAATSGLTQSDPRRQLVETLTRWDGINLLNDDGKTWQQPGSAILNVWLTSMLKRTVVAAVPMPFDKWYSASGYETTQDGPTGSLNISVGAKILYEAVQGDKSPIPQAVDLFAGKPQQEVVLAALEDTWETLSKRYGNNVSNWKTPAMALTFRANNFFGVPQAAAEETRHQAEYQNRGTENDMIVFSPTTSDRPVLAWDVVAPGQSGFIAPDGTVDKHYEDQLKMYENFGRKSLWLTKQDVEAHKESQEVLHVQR

The assay has as its target T1, Penicillin acylase from Escherichia coli (Escherichia coli, UniProt P06875).
T1 construct: gene pac; prepared by a procedure described earlier
Briefly: KM as competitive inhibition constant of NIPAB hydrolysis, […] nm. The class given is biochemical. The conditions noted are these: pH 7.5, 0.01 M phosphate, 0.1 M KCl, 25 C; competitive with NIPAB.
For the compound `O=C(O)C[C@H](NC(=O)OCc1ccccc1)C(=O)O` [N-benzyloxycarbonyl derivative of aspartic acid], the KM entry is given as “the least effective binding substrates for penicillin acylase from Escherichia coli are derivatives of aspartic acid”. In the case of `C[C@H](NC(=O)OCc1ccccc1)C(=O)O` [N-benzyloxycarbonyl-L-Ala] it was “expressed as the catalytic constant value (%) with respect to the corresponding alanine derivatives”; in that of `O=C(O)C[C@H](NC(=O)Cc1ccccc1)C(=O)O` [N-phenylacetyl derivative of aspartic acid], “the least effective binding substrates for penicillin acylase from Escherichia coli are derivatives of aspartic acid”.
